Several values for one entry are separate records, joined by “and”; a condition that tells them apart may be missing. Equal values may be shown once.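 Tested at 5 concentrations; 48 h exposure; 96-well plates; endpoints linearly interpolated, else capped at highest concentration. GI50 marks 50% less growth. TGI marks complete inhibition of growth.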
test system: HCT-15 colon; assay: growth of human tumour cells (NCI), 48 h

SMILES	GI50 [nM]	TGI
OC(c1cc(-c2ccc(C(F)(F)F)cc2)nc(C(F)(F)F)c1)C1CCCCN1 (stereo not given)	1700	3.12 µM and 4.7 µM
CCCCCCCCCCNC(=O)CI	1500	3.31 µM
CCc1ccc2c(c1)C(=O)c1c-2n(CCCN=[N+]=[N-])c(=O)c2cc([N+](=O)[O-])ccc12	> 50000	> 50 µM
Cc1cc(N/N=C/c2ccccn2)nc2ccccc12	336	16.3 µM
CC1CC(O)C(=O)C(O[C@@H]2C[C@@H]3CC[C@@H]4[C@H](CC[C@]5(C)C(C6=CC(=O)OC6)CC[C@]45O)[C@@]3(C=O)C[C@H]2O)O1 (stereo not given in full)		0.0716 µM

test system: T-47D breast; assay: growth of human tumour cells (NCI), 48 h

SMILES	GI50	TGI
O=C1CCCN1c1ccccc1I(=O)=O	91400 nM	> 100 µM
COC(=O)C1=COC(C)C2CN3CCc4c([nH]c5ccccc45)C3CC12 (stereo not given)	16600 nM and > 100000 nM	67.3 µM and > 100 µM
O=C(NCc1ccc(Cn2c(=O)sn(-c3ccccc3)c2=O)cc1)OCc1ccc2cccc(O)c2n1	1490 nM	4.59 µM
COC(c1ccc(C(C)(C)C)cc1)(c1ccc(C(C)(C)C)cc1)c1ccc(C(C)(C)C)cc1		> 100 µM
CC(C)c1[nH]nc2c1N=C(c1ccccc1Cl)c1cc([N+](=O)[O-])ccc1N2	8750 nM	> 23 µM
Nc1cc2c(cc1Br)[nH]c(=O)c1ccccc12	4220 nM	55.8 µM
COc1ccc(-c2nccn2-c2ccc(OC)cc2)cc1	65400 nM	> 100 µM
O=C(/C=C/c1ccccc1)c1ccccc1		> 10 µM
COc1cc2c(/C=N\N=C(N)N)c[nH]c2cc1C	11700 nM	27.9 µM
CC(C)[C@H](O)C(=O)N[C@@H](C)C(=O)N[C@@H]1C(=O)N(C)CCc2ccccc21	> 100000 nM	> 100 µM
C=CC(=O)N1CN(C(=O)C=C)CN(C(=O)C=C)C1	2320 nM	12.8 µM
ClC(Cl)=C1C(=C(Cl)Cl)C(Cl)(Cl)C1(Cl)Cl		23.6 µM
C#CCOc1cccc(Nc2ncnc3c(NC(=O)C=C)cccc23)c1	18200 nM	78.4 µM
CO[C@H]1Nc2c(ccc(C)c2O)C(=O)N2C=C(/C=C/C(N)=O)C[C@@H]12		> 7.99 µM
O=C(/C(=C\c1c(-c2ccccc2)[nH]c2ccccc12)S(=O)(=O)c1ccccc1)c1ccccc1	3440 nM	> 100 µM
CCNC(=O)/C(=C/c1ccc(OC)cc1)c1cc(OC)c(OC)c(OC)c1		> 100 µM
Cc1ccc(OCCOCCOCCOCCOc2ccc(C)n(O)c2=S)c(=S)n1O	< 10 nM	> 100 µM
COc1ccc(-c2ccc3c(N4CCOC[C@@H]4C)nc(N4CCOC[C@@H]4C)nc3n2)cc1CO	1.58 nM and < 10 nM	0.00844 µM and 0.0544 µM
N[C@H](CCC(=O)N[C@@H](Cc1c[nH]c2ccccc12)C(=O)O)C(=O)O	> 100000 nM	> 100 µM
COc1ccc(-c2nc(-c3cc(OC)cc(OC)c3)[nH]c2-c2ccc(OC)cc2)cc1	2360 nM	9.25 µM
CN(C)CCNCCN		> 100 µM
COC(=O)c1cc2c(o1)-c1nccc3c1c(nc1ccccc13)C2=O	1880 nM	6.9 µM
Nc1ccccc1O.O.O=C(O)C1[O][Sb][O]C1C(=O)O (stereo not given)	12200 nM	34 µM
O=C(c1ccco1)c1c(C(F)(F)F)n([O-])c2ccc(C(F)(F)F)cc2[n+]1=O	344 nM	1.75 µM
OC(c1cc(-c2ccc(C(F)(F)F)cc2)nc(C(F)(F)F)c1)C1CCCCN1 (stereo not given)	1660 nM and 2330 nM	3.31 µM and 6.2 µM
CCCCCCCCCCNC(=O)CI	829 nM	2.41 µM
CCc1ccc2c(c1)C(=O)c1c-2n(CCCN=[N+]=[N-])c(=O)c2cc([N+](=O)[O-])ccc12	> 50000 nM	> 50 µM
Cc1cc(N/N=C/c2ccccn2)nc2ccccc12	376 nM	15.9 µM
CC1CC(O)C(=O)C(O[C@@H]2C[C@@H]3CC[C@@H]4[C@H](CC[C@]5(C)C(C6=CC(=O)OC6)CC[C@]45O)[C@@]3(C=O)C[C@H]2O)O1 (stereo not given in full)		0.205 µM

Reference: PubChem BioAssay (NCI)
